Experimental data: patent US4734280A, “Treatment or prevention of PAF Acether-induced maladies” (priority 1984, dated 1988)
Where two headings read alike, the source gives them in different places.

Experiments:
[1] = system: guinea-pig isolated heart; assay: Isolated Langendorff heart, PAF Acether effect; details: PAF Acether 100 pM
Description: The deletereous effect of PAF Acether on Isolated Langendorff heart has been previously described by J. BENVENISTE, C. BOULLET, C. BRINK and C. LABAT, Brit. J. Pharmacol, The action of PAF Acether on guinea-pig isolated heart preparation, 80: 81-3 (1983).
PAF Acether (100 pM) induced a decline in contractile strength (-30%) and a decrease of coronary flow (-50%).
This effect was dose-dependent (disappearance of protective activity when dose ≤10^-7 M).

[2] = system: rabbit plasma-rich platelets (PRP); assay: Inhibition of PAF Acether-induced PA, rabbit PRP in vitro; assay type: cell-based; details: Oryctolagus cuniculus, Platelet, average of 10 assays, read-out: IC50 doses on PAF Acether-induced rabbit PA (PRP)
Method: The Inhibition of PAF Acether-induced PA has been studied on rabbit plasma-rich platelets (PRP). Two doses of PAF Acether were used (2.5 nM and 5 nM). The tested compound was added to the medium 3 minutes before PAF Acether and aggregation was followed by monitoring changes in electrical impedance (Whole-Blood aggregometer-chrono-Log); kadsurenone was simultaneously tested as reference compound and the IC50 molar doses of Ginkgolides A, B, C and M and of kadsurenone on PAF Acether-induced rabbit PA (PRP) have been calculated.
The results obtained are presented in the following table (average values for 10 assays for each dose) and FIG. 1: […]

New-Zealand rabbits = assay: PAF Acether-induced shock in the rabbit; assay type: in vivo; details: for Extravasation (O.D.): 2 mg/kg IV perfusion, 30 mn, optical density at 590 nm, average of 10 animals
Method: Treatment: Tested compounds (Gingkolides A, B and C) or vehicle were perfused in the ear vein in 45 ml NaCl 0.9% for 1 hour before PAF Acether injection. Vehicle consisted of 1.5 ml of propylene glycol completed to 45 ml by isotonic NaCl buffer; Ginkgolides were administered at the dose of 2 mg/kg IV; the figures reported in the following table are the average values of the 10 animals of each batch.

rabbit platelets = assay: Ex vivo PAF Acether-induced rabbit PA after per os or IV administration; assay type: in vivo; details: for activity at 0.5 mg/kg / activity at 1 mg/kg / activity at 2 mg/kg: Oryctolagus cuniculus, Platelet, iv, read-out: PAF Acether-induced rabbit PA (% of control); for activity at 0.5 mg/kg: IV 0.5 mg/kg; for activity at 1 mg/kg: IV 1 mg/kg; for activity at 2 mg/kg: IV 2 mg/kg
Method: Drugs were administered per os (2,5 and 10 mg/kg) or by IV route (0.5, 1, 2 mg/kg) and blood samples were taken at different times to test platelet aggregation with PAF-Acether ([…]) (see following table wherein the figures appearing are the ratio to the control with the solvent used, i.e. DMSO).

thermal-injured patients = assay: Preliminary clinical trial in thermal-injured patients (open study); assay type: in vivo, human; details: perfusion 5 mg per hour for six hours then 2 mg per hour for 48 hours; 13 patients, burnt surface area >50%
Method: An open study has been performed on 13 thermal-injured patients (total burnt surface area >50%) treated by Ginkgolide B.
The Ginkgolide B was administered in a perfusion (5 mg per hour for six hours and then 2 mg per hour for the following 48 hours).

human platelets = assay: Ex vivo PAF Acether-induced PA in man after IV administration; details: IV 25 mg, PAF Acether 100 nM
Method: […] DMSO).
The same protocol described hereinabove for rabbit was used in man with only one dose of each Ginkgolide (IV 25 mg) and two blood takes (at 0.5 h and 1 h).

[3] = system: rabbit plasma-rich platelets (PRP); assay: Aggregation induced by other known aggregants (ADP, thrombine, calcium ionophore A 23187, collagen, adrenaline); assay type: cell-based; details: calcium ionophore A 23187, collagen and adrenaline
PAF-Acether receptor = target: T1, PAF-Acether receptor (Oryctolagus cuniculus, UniProt G1TEI7); assay: Competition with 3H-PAF Acether binding, rabbit membrane platelet preparation
T1 construct: using a rabbit membrane platelet preparation; from tissue; host or cells: rabbit platelets (membrane preparation)
T1 sequence (G1TEI7 1-342): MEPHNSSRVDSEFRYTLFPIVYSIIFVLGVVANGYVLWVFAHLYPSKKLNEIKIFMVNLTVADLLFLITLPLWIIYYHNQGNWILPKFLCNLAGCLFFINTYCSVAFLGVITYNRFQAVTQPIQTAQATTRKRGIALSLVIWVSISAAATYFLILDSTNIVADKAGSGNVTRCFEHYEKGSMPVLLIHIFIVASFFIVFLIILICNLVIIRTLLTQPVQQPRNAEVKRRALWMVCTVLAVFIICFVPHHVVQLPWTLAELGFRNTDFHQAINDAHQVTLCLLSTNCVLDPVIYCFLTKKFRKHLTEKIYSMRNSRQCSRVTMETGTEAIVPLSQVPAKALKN
Description: The competition of the alternative binding of either ^3 H-PAF Acether or one of the Ginkgolides was evidenced by radioactive determinations using a rabbit membrane platelet preparation. (100% control=^3 H-PAF Acether alone).

human washed platelets = assay: Inhibition of PAF Acether-induced PA, human washed platelets; assay type: cell-based; details: Platelet, average values of 5 assays
Description: The inhibition of PAF Acether-induced PA was also experimented using human washed platelets on Ginkgolides A, B, and C.
Best figure for IC50 was obtained with Ginkgolide B (GK B) (average values of 5 assays) with 2.5 10^-5 M.

[4] = 2 mg/kg IV, PAF Acether 2 and 4 nmol/kg, 10 animals per batch
[5] = 0.5 h, PAF Acether 2.5 nM, 0.5 h
[6] = 0.5 h, PAF Acether 5.0 nM, 0.5 h

Question: How did the “inhibition of PAF Acether-induced decline in contractile strength and decrease of coronary flow” value ([1]; 2.10^-4 M) turn out when `CC1C(=O)OC2C(O)C34C5CC(C(C)(C)C)C36C(OC(=O)C6O)OC4(C(=O)O5)C12O` (centres unmarked) [Ginkgolide B] was run?
Answer: totally inhibited

Question: What about the “dose at which protective activity disappears” value [1] of the same compound?
Answer: ≤ 10^-7 M

Question: And the IC50 ([2]; PAF Acether 2.5 nM)?
Answer: 1880 nM

Question: What about the IC50 ([2]; PAF Acether 5 nM) of the same compound?
Answer: 3200 nM

Question: What about the “Extravasation (O.D.)” value (New-Zealand rabbits; PAF Acether 2 nmol/kg) of the same compound?
Answer: 0.827 O.D.

Question: What about the “Extravasation (O.D.)” value (New-Zealand rabbits; PAF Acether 4 nmol/kg) of the same compound?
Answer: 0.880 O.D.

Question: What about the “Behaviour: behavioural modifications” value (New-Zealand rabbits; [4]) of the same compound?
Answer: No behavioural

Question: What about the “Behaviour: deaths” value (New-Zealand rabbits; [4]) of the same compound?
Answer: No death

Question: What about the activity at 0.5 mg/kg (rabbit platelets; [5]) of the same compound?
Answer: 0%

Question: And the activity at 0.5 mg/kg (rabbit platelets; [6])?
Answer: 0%

Question: And the activity at 1 mg/kg (rabbit platelets; [5])?
Answer: 0%

Question: And the activity at 1 mg/kg (rabbit platelets; [6])?
Answer: 0%

Question: What about the activity at 2 mg/kg (rabbit platelets; [5]) of the same compound?
Answer: 0%

Question: And the activity at 2 mg/kg (rabbit platelets; [6])?
Answer: 0%

Question: What about the activity at 0.5 mg/kg (rabbit platelets; 1 h, PAF Acether 2.5 nM, 1 h) of the same compound?
Answer: 7.4%

Question: What about the activity at 0.5 mg/kg (rabbit platelets; 1 h, PAF Acether 5.0 nM, 1 h) of the same compound?
Answer: 9.4%

Question: What about the activity at 1 mg/kg (rabbit platelets; 1 h, PAF Acether 2.5 nM, 1 h) of the same compound?
Answer: 0%

Question: What about the activity at 1 mg/kg (rabbit platelets; 1 h, PAF Acether 5.0 nM, 1 h) of the same compound?
Answer: 1.1%

Question: And the activity at 2 mg/kg (rabbit platelets; 1 h, PAF Acether 2.5 nM, 1 h)?
Answer: 0%

Question: What about the activity at 2 mg/kg (rabbit platelets; 1 h, PAF Acether 5.0 nM, 1 h) of the same compound?
Answer: 0%

Question: And the activity at 0.5 mg/kg (rabbit platelets; 2 h, PAF Acether 2.5 nM, 2 h)?
Answer: 11.2%

Question: What about the activity at 0.5 mg/kg (rabbit platelets; 2 h, PAF Acether 5.0 nM, 2 h) of the same compound?
Answer: 14.5%

Question: And the activity at 1 mg/kg (rabbit platelets; 2 h, PAF Acether 2.5 nM, 2 h)?
Answer: 4.1%

Question: And the activity at 1 mg/kg (rabbit platelets; 2 h, PAF Acether 5.0 nM, 2 h)?
Answer: 7.2%

Question: What about the activity at 2 mg/kg (rabbit platelets; 2 h, PAF Acether 2.5 nM, 2 h) of the same compound?
Answer: 0%

Question: And the activity at 2 mg/kg (rabbit platelets; 2 h, PAF Acether 5.0 nM, 2 h)?
Answer: 0%

Question: What about the “PAF Acether-induced rabbit PA (% of control)” value (rabbit platelets; per os 2 mg/kg, PAF Acether 2.5 nM, 0.5 h) of the same compound?
Answer: 23%

Question: And the “PAF Acether-induced rabbit PA (% of control)” value (rabbit platelets; per os 2 mg/kg, PAF Acether 2.5 nM, 1 h)?
Answer: 37%

Question: And the “PAF Acether-induced rabbit PA (% of control)” value (rabbit platelets; per os 2 mg/kg, PAF Acether 2.5 nM, 2 h)?
Answer: 54%

Question: What about the “PAF Acether-induced rabbit PA (% of control)” value (rabbit platelets; per os 2 mg/kg, PAF Acether 5.0 nM, 0.5 h) of the same compound?
Answer: 34.5%

Question: What about the “PAF Acether-induced rabbit PA (% of control)” value (rabbit platelets; per os 2 mg/kg, PAF Acether 5.0 nM, 1 h) of the same compound?
Answer: 47.8%

Question: And the “PAF Acether-induced rabbit PA (% of control)” value (rabbit platelets; per os 2 mg/kg, PAF Acether 5.0 nM, 2 h)?
Answer: 71.2%

Question: What about the “PAF Acether-induced rabbit PA (% of control)” value (rabbit platelets; per os 5 mg/kg, PAF Acether 2.5 nM, 1 h) of the same compound?
Answer: 7%

Question: And the “PAF Acether-induced rabbit PA (% of control)” value (rabbit platelets; per os 5 mg/kg, PAF Acether 2.5 nM, 2 h)?
Answer: 10%

Question: What about the “PAF Acether-induced rabbit PA (% of control)” value (rabbit platelets; per os 5 mg/kg, PAF Acether 5.0 nM, 0.5 h) of the same compound?
Answer: 6%

Question: And the “PAF Acether-induced rabbit PA (% of control)” value (rabbit platelets; per os 5 mg/kg, PAF Acether 5.0 nM, 1 h)?
Answer: 11.4%

Question: What about the “PAF Acether-induced rabbit PA (% of control)” value (rabbit platelets; per os 5 mg/kg, PAF Acether 5.0 nM, 2 h) of the same compound?
Answer: 27.1%

Question: What about the “clinical outcome in thermal-injured patients” value (thermal-injured patients) of the same compound?
Answer: faster recovery (decreased oedema, decreased plasma leakage and improvement of clinical outcome)

Question: What about the “% of aggregation with respect to control” value (human platelets; blood take at 0.5 h) of the same compound?
Answer: 0%

Question: And the “% of aggregation with respect to control” value (human platelets; blood take at 1.0 h)?
Answer: 3.4%

Question: And the “effect against aggregation induced by other known aggregants” value [3]?
Answer: totally ineffective

Question: And the IC50 (PAF-Acether receptor; rabbit membrane platelet preparation)?
Answer: 575 nM

Question: What about the inhibition at 1 µM (PAF-Acether receptor; read-out: reduction of 3H-PAF Acether binding) of the same compound?
Answer: 94%

Question: And the IC50 (human washed platelets)?
Answer: 25000 nM
